Test results taken from patent publication US9439884B2, “Methods for the treatment of immune disorders” (Beth Israel Deaconess Medical Center, Inc., priority 2011, dated 2016).
Entries after “also recorded” stand apart in the source; their conditions may differ. Like-named read-outs stand apart in the source and are kept apart here. *1 amine or outer side, *2 acyl side, *3 side chain or, on linkers, in order; H or OH if unused. Where a SMILES comes first, the peptide text is derived from it. Where no end group is shown, it is not given here. [ ]: non-standard residue; d: D form. 15N‑Ala = Ala with single 15N label, C[C@H]([15NH][*:1])C(=O)[*:2]; pS = N[C@@H](COP(=O)(O)O)C(=O)O

Key:
[1] = molecular target: T1, Pin1 (Homo sapiens, UniProt Q13526); assay: 15N-1H Nzz exchange spectroscopy of Pin1-catalyzed cis-trans isomerization; type: biochemical; conditions: pS173P peptide bond; peptide 1 mM, Pin1 17 μM
T1 sequence (Q13526 whole entry): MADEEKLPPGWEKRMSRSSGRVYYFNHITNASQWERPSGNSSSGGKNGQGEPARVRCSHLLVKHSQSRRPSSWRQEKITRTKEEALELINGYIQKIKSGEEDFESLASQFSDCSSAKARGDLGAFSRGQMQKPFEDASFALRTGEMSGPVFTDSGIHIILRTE
Description: Because uncatalyzed cis-trans isomerization is a generally slow process (time constant minutes), the equilibrium between cis and trans isomers yields two distinct peaks for residues (such as A175) whose chemical environment differs in the two isomer states. […] The dependence of peak intensities on Nzz mixing time yields the cis-trans exchange rate. […] Based on peak intensities in the absence of Pin1, the pS173P trans:cis ratio is 85:15.

[2] = molecular target: T1, Pin1; assay: Fluorescence polarization (FP)-based HTS / displacement of labeled Pin1 peptidic inhibitor pTide; type: binding
Description: (§1) In this regard, recently, we identified specific and potent Pin1 catalytic peptidic inhibitors and used them to establish a robust and sensitive FP-based HTS to screen approved drugs and NIH Chemical and Genomics Center, which led us to successfully identify all trans retinoic acid (ATRA) and four other Pin1 inhibitors active in cells for further optimization including Cpd4 (FIG. 27A).
(§2) We developed a fluorescence polarization (FP)-based HTS using fluorescence labeled Pin1 peptidic inhibitor, pTide to identify Pin1 inhibitors. Our screening of selected compounds at the Harvard ICCB-L libraries identified the strongest hit to be cis-RA according to the Z-score (FIG. 31A). To confirm that RAs target Pin1, we examined cis-RA and trans-RA in vitro and in cells. […] Cellular Pin1 activity was also reflected by cyclin D1 levels (FIG. 31D), a known Pin1 biomarker.

[3] = molecular target: T1, Pin1; assay: Pin1 PPIase (catalytic activity) assay in vitro; type: biochemical
Description: as §1, §2

[4] = molecular target: T2, Pin1 WW domain (Homo sapiens, UniProt Q13526); assay: 2D NMR (15N-1H HSQC) titration of 15N-WW domain with IRAK1 phosphopeptides; type: binding; conditions: chemical shift change of 15N-WW domain as a function of peptide concentration; read-out: dissociation constants (KD)
T2 construct: monitor the changes in the ^15N-WW domain induced by titration with phosphopeptide ligands
T2 sequence (Q13526 5-39 limits assumed): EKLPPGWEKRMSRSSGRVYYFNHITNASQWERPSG
Description: To measure the Pin1 interaction with each of the implicated pSer-Pro motifs in IRAK1, we employed two-dimensional (2D) NMR spectroscopy to monitor the changes in the ^15N-WW domain induced by titration with phosphopeptide ligands. In a 2d ^15N-^1H HSQC spectrum of a protein (FIG. 3a), each backbone NH group is represented by a peak, whose position reflects the chemical environment of that NH bond. Ligand binding to the protein is detected by changes in peak positions (fast exchange) or by the appearance of new peaks (slow exchange) as ligand is added. WW binding at each distinct IRAK1 site was measured using phosphopeptides containing residues 126-136 (pSer131-P132), 140-150 ([…]), and 157-180 (pSer173-P174) of IRAK1.

[5] = molecular target: T3, TLR9 (Homo sapiens, UniProt Q9NR96); conditions: cited from earlier work
T3 sequence (Q9NR96 26-1032): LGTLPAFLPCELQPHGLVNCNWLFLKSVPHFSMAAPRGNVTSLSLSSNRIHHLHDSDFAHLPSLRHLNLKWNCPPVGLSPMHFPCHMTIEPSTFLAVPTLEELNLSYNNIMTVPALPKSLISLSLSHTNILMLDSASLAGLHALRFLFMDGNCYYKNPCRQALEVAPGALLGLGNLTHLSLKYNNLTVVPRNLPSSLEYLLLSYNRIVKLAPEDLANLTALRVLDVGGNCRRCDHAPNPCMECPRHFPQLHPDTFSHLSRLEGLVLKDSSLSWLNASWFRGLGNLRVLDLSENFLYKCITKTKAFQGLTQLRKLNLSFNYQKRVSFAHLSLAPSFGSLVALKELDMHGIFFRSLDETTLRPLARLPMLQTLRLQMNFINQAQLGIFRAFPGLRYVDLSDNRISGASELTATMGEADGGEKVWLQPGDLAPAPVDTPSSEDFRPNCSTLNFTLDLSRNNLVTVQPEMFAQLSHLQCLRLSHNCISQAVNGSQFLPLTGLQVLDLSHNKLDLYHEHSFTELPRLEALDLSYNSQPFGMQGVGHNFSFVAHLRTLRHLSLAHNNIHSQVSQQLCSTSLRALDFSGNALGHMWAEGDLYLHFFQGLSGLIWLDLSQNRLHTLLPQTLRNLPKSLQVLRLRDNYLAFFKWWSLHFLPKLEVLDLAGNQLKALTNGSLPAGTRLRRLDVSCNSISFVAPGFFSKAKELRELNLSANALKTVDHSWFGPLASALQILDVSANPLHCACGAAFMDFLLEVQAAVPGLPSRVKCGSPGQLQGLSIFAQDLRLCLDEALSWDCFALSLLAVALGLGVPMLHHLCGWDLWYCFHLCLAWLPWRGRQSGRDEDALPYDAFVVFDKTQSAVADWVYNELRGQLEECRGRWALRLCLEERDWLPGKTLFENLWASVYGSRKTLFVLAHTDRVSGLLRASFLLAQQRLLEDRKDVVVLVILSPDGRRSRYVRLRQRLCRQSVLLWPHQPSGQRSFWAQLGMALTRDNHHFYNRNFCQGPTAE

[6] = tested on: NZBWF1 mice; assay: Proteinuria in lupus-prone NZBWF1 mice (Bio-Rad assay); type: in vivo; conditions: female NZBWF1 mice, controlled release pellets, 3.5 months, vs placebo
Protocol: Female lupus-prone NZBWF1 mice were treated with placebo or ATRA for 3.5 months and proteinuria was evaluated by Bio-Rad assay.
Our objective here was to determine if the Pin1 inhibitor we have discovered, ATRA, offer a treatment benefit in preclinical models of SLE. To this end we have been treating NZBWF1 female mice for 3.5 months with controlled release ATRA pellets, which have been well established pharmacologically and which offer the advantage ease of delivery, reduced stress to subjects and controlled drug release. Each cohort has been pre-bleed and urine collected before the start of drug treatment. Subsequently, we have collected serum and urine samples monthly for evaluation of disease markers such as autoantibodies and proteinuria.

[7] = tested on: BM-derived eosinophils; assay: IL-6 ELISA in IL-33-stimulated BM-derived eosinophils; type: cell-based; conditions: 100 ng/ml IL-33
[8] = tested on: cancer cells; assay: Pin1-dependent cancer cell growth; type: cell-based
Description: as §1

[9] = tested on: Pin1 KO MEFs; assay: Anti-proliferative effect in Pin1 KO MEFs with or without Pin1 re-expression; type: cell-based, mouse
[10] = tested on: SKBR3; assay: Cell growth inhibition, SKBR3; type: cell-based; conditions: breast cancer cell line SKBR3
[11] = molecular target: T1, Pin1; assay: Pin1 protein/mRNA levels and turnover in cells; type: cell-based
Description: as §2

[12] = tested on: lupus prone mouse models; conditions: some lupus prone mouse models; cited from earlier work
[13] = tested on: MCF-10A; assay: Cell growth, normal breast cells MCF-10A; type: cell-based
[14] = tested on: T47D; assay: Cell growth inhibition, T47D; type: cell-based; conditions: breast cancer cell line T47D
[15] = molecular target: T4, Pin1 (Mus musculus, UniProt Q9QUR7); assay: Pin1 western and PPIase assay in IL-33-stimulated BM-derived eosinophils; type: cell-based; conditions: 100 ng/ml IL-33
T4 construct: endogenous in cells; host or cells: bone-marrow-derived eosinophils
T4 sequence (Q9QUR7 whole entry): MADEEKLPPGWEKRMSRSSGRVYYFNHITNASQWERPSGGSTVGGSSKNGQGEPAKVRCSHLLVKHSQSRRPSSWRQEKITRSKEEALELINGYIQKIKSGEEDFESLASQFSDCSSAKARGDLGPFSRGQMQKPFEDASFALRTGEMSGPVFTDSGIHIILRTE

[16] = tested on: pDCs; assay: Cytokine production of pDCs upon TLR9 activation by CpG; type: cell-based
[17] = molecular target: T1, Pin1; assay: Co-crystal structure of Pin1 and ATRA; type: binding
[18] = tested on: PP2A; assay: Pin1 dephosphorylation in human PBMCs after TLR9 activation by CpG; type: cell-based; conditions: human PBMCs pretreated with 5 nM
Description: We have shown that in SLE T cells the message, protein and activity of PP2Ac is increased and is involved in their abnormal function. First, PP2Ac dephosphorylates pCREB and accounts for the decreased IL-2 production. Second, PP2Ac dephosphorylates the transcription factor Elf1 and decreases its ability to bind to the promoters of CD3zeta and FcRgamma genes causing suppression of the first and derepression of the second with significant repercussions in the composition of the CD3 complex in SLE T cells. Third, PP2Ac dephosphorylates (and activates) SP1, which binds to the promoter of IL-17A and promotes its expression. […] Moreover, Pin1 also was dephosphorylated in T cells isolated from CD2:PP2A transgenic mice that overexpresses PP2Ac in T cells developed in Dr. Tsokos laboratory, but not wild-type littermates (FIG. 25E). Therefore, it is reasonable to predict that increased PP2Ac activity may contribute to the dephosphorylation and activation of Pin1 in SLE. Alternatively, because calcineurin (CaN) can also dephosphorylate Pin1 in vitro (FIG. 25) and CaN inhibitors may have a place in the treatment of SLE, we will consider it as a viable alternative to PP2Ac.

^15N-Ala175-UD157-180: IRAK1 UD157-180 phosphopeptide with a single 15N label at Ala175 (ELGLVPSPASLWPPPP[pS]P[15N‑Ala]PSSTK; not fully specified; also: other phosphorylation sites not given here; UniProt P51617 157-180, looked up, fragment)
Pin1-catalyzed isomerization rate kex [1]: 27 s⁻¹

CC1=C(/C=C/C(C)=C/C=C/C(C)=C\C(=O)O)C(C)(C)CCC1 [cis-RA, 13-cis retinoic acid]
hit ranking according to the Z-score ([2]; screening of Harvard ICCB-L libraries): strongest hit
inhibition of Pin1 catalytic (PPIase) activity [3]: Dose-dependant Pin1 inhibition

CC(C)C[C@H](NC(=O)[C@H](CCCCN)NC(=O)[C@H](CCCNC(=N)N)NC(=O)[C@@H]1CCCN1C(=O)[C@H](COP(=O)(O)O)NC(=O)[C@H](Cc1c[nH]c2ccccc12)NC(=O)[C@H](C)NC(=O)[C@H](CCC(=O)O)NC(=O)[C@H](C)NC(=O)[C@@H](N)CCC(=O)O)C(=O)N1CCC[C@H]1C(=O)O [126-136 (pSer131-P132)] (H-EAEAW[pS]PRKLP-OH)
Kd [4]: 220 ± 15 µM

CCN(CCO)CCCC(C)Nc1ccnc2cc(Cl)ccc12 (stereo not drawn) [hydroxychloroquine]
stimulation of TLR9 [5]: inhibits stimulation of TLR9

CC1=C(/C=C/C(C)=C/C=C/C(C)=C/C(=O)O)C(C)(C)CCC1 [ATRA, all trans retinoic acid]
proteinuria [6]: significantly reduced
Pin1 inhibition in FP assays ([2]; compared with cis-RA): more potent Pin1 inhibition than cis-RA
competition with Pin1 catalytic peptidic inhibitors for binding to the Pin1 active site ([2]; preliminary results): effectively competed
IL-6 secretion [7]: inhibited
inhibition of Pin1-dependent cancer cell growth [8]: inhibited Pin1-dependent cancer cell growth
sensitivity to anti-proliferative effects ([9]; Pin1 KO MEFs): much more resistant
drug sensitivity ([9]; Pin1 KO MEFs with stable re-expression of Pin1 (not its inactive mutant)): fully restored
inhibition of cell growth [10]: inhibiting cell growth
inhibition of Pin1 catalytic (PPIase) activity [3]: inhibited its catalytic activity
inhibition of Pin1 catalytic (PPIase) activity ([3]; listed as trans-RA): Dose-dependant Pin1 inhibition; also recorded: inhibiting Pin1 PPIase assays
Pin1 levels ([11]; breast cancer cell lines SKBR3 and T47D): reducing Pin1 levels
degradation of Pin1 and its substrate D1 ([11]; cancer cells): induced the degradation
SLE-related phenotypes [12]: suppress SLE-related phenotypes
effect on normal breast cells [13]: without any effects
inhibition of cell growth [14]: inhibiting cell growth
Pin1 activation (PPIase assay) [15]: inhibited Pin1 activation
Pin1 degradation (Pin1 western) [15]: induced Pin1 degradation
production of IL6 [16]: suppressed
production of IL12 [16]: suppressed
production of TNF-α [16]: suppressed
binding site in co-crystal structure [17]: bound to Pin1 active site

C=C1[C@@H](O)[C@@H]2O[C@]3(CC[C@H](/C=C/[C@@H](C)[C@@H]4CC(C)=C[C@@]5(O[C@H](C[C@@](C)(O)C(=O)O)CC[C@H]5O)O4)O3)CC[C@H]2O[C@@H]1[C@@H](O)C[C@H](C)[C@H]1O[C@@]2(CCCCO2)CC[C@H]1C [okadaic acid]
Pin1 dephosphorylation after CpG [18]: reversed
